Data as given in ChEMBL document CHEMBL1201862, “PubChem BioAssay data set” (2004).
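Protocol summary: plate cells (96-well), add compound at 5 concentrations, incubate 48 h, interpolate endpoints linearly. Here, GI50 denotes the concentration required for 50% inhibition of growth.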 Activity calls are given as the source filed them. Cut-off read from the data, not from the text of the source: active = GI50 up to about 1.1 µM and inactive = higher.

Assays:
Assay in all cases: DTP human tumour cell line panel, 48 h
[1] = system: Malme-3M
[2] = system: IGROV-1
[3] = system: HT-29
[4] = system: Hs-578T
[5] = system: MDA-MB-435
[6] = system: KM12
[7] = system: T47D
[8] = system: OVCAR-5
[9] = system: PC-3
[10] = system: MDA-MB-231
[11] = system: DU-145
[12] = system: M14
[13] = system: SF-539
[14] = system: HOP-92
[15] = system: K562
[16] = system: SF-295
[17] = system: COLO 205
[18] = system: SK-MEL-2
[19] = system: HCC 2998
[20] = system: OVCAR-8
[21] = system: MOLT-4
[22] = system: NCI-H522
[23] = system: ACHN
[24] = system: UACC-257
[25] = system: 786-0
[26] = system: SW-620
[27] = system: SK-MEL-5
[28] = system: SNB-75
[29] = system: SR
[30] = system: OVCAR-3
[31] = system: SF-268
[32] = system: MDA-N
[33] = system: HCT-15
[34] = system: HOP-62
[35] = system: SK-OV-3
[36] = system: NCI-H226
[37] = system: NCI/ADR-RES
[38] = system: SK-MEL-28
[39] = system: CAKI-1
[40] = system: NCI-H23
[41] = system: HCT-116
[42] = system: SN12C
[43] = system: SNB-19
[44] = system: RXF 393
[45] = system: TK-10
[46] = system: LOX IMVI
[47] = system: RPMI-8226
[48] = system: EKVX
[49] = system: NCI-H460
[50] = system: UO-31
[51] = system: CCRF-CEM
[52] = system: A549
[53] = system: MCF7
[54] = system: U-251
[55] = system: HL-60
[56] = system: UACC-62
[57] = system: OVCAR-4
[58] = system: A498
[59] = system: BT-549

Measured: GI50

Cc1cc(=O)oc2c(CNC(C)C(=O)O)c(O)ccc12 (stereo not given)
inactive: [1] > 100 µM | [2] > 100 µM | [3] > 100 µM | [4] > 100 µM | [5] > 100 µM | [6] > 100 µM | [7] > 100 µM | [8] > 100 µM | [9] > 100 µM | [10] > 100 µM | [11] > 100 µM | [12] > 100 µM | [13] > 100 µM | [14] 65.3 µM | [15] > 100 µM | [16] > 100 µM | [17] > 100 µM | [18] > 100 µM | [19] > 100 µM | [20] > 100 µM | [21] > 100 µM | [22] > 100 µM | [23] > 100 µM | [24] > 100 µM | [25] > 100 µM | [26] > 100 µM | [27] > 100 µM | [28] > 100 µM | [29] > 100 µM | [30] > 100 µM | [31] > 100 µM | [32] > 100 µM | [34] > 100 µM | [35] > 100 µM | [36] > 100 µM | [37] > 100 µM | [38] > 100 µM | [39] > 100 µM | [40] > 100 µM | [41] 71.4 µM | [42] > 100 µM | [43] > 100 µM | [44] > 100 µM | [45] 95.7 µM | [46] > 100 µM | [47] > 100 µM | [48] > 100 µM | [49] > 100 µM | [50] 36.9 µM | [51] > 100 µM | [52] > 100 µM | [53] > 100 µM | [54] > 100 µM | [55] > 100 µM | [56] > 100 µM | [57] > 100 µM
> 100 µM: [33]

NCCCn1c2ccccc2c2c3c(c4c(c21)CCC(O)CC4)C(=O)NC3=O (stereo not given)
active: [3] 0.729 µM | [6] 0.458 µM | [15] 0.69 µM | [19] 0.845 µM | [26] 1.04 µM | [38] 0.92 µM | [46] 1.01 µM | [51] 0.962 µM | [53] 0.796 µM
inactive: [1] 2.14 µM | [2] 9.79 µM | [4] 3.13 µM | [5] 1.53 µM | [8] 2.24 µM | [9] 3.48 µM | [10] 1.85 µM | [11] 3.7 µM | [12] 4.48 µM | [13] 6.61 µM | [14] 2.71 µM | [16] 3.22 µM | [18] 10.4 µM | [58] 9.38 µM | [20] 5.01 µM | [21] 1.53 µM | [22] 2.44 µM | [23] 1.79 µM | [24] 14.8 µM | [25] 2.92 µM | [27] 3.31 µM | [29] 1.69 µM | [30] 2.55 µM | [31] 1.58 µM | [34] 2.5 µM | [36] 2.74 µM | [37] 13 µM | [39] 3.66 µM | [59] 4.81 µM | [40] 2.45 µM | [41] 1.88 µM | [42] 2.42 µM | [44] 2.15 µM | [45] 3.57 µM | [47] 1.98 µM | [48] 9.18 µM | [49] 2.06 µM | [50] 6.27 µM | [52] 4.86 µM | [54] 1.75 µM | [55] 9.12 µM | [56] 4.12 µM | [57] 1.85 µM
11 µM: [33]
